What was measured:
[1] = Antiproliferative against rat HSC-T6 cells measured after 48 hrs by CCK8 assay; format: toxicity, cell-based
[2] = Antiproliferative against HLF1 cells measured after 48 hrs by CCK8 assay; format: toxicity, cell-based; conditions: human, HFL1 cells (description prints HLF1)
[3] = target: T1, Mitogen-activated protein kinase kinase kinase 5 (Homo sapiens, UniProt Q99683); assay: Inhibition of human recombinant ASK1 using MBP as substrate preincubated for 1 hr followed by reagent addition incubated for 40 mins by ATP-Glo kinase assay
T1 sequence (Q99683 whole entry): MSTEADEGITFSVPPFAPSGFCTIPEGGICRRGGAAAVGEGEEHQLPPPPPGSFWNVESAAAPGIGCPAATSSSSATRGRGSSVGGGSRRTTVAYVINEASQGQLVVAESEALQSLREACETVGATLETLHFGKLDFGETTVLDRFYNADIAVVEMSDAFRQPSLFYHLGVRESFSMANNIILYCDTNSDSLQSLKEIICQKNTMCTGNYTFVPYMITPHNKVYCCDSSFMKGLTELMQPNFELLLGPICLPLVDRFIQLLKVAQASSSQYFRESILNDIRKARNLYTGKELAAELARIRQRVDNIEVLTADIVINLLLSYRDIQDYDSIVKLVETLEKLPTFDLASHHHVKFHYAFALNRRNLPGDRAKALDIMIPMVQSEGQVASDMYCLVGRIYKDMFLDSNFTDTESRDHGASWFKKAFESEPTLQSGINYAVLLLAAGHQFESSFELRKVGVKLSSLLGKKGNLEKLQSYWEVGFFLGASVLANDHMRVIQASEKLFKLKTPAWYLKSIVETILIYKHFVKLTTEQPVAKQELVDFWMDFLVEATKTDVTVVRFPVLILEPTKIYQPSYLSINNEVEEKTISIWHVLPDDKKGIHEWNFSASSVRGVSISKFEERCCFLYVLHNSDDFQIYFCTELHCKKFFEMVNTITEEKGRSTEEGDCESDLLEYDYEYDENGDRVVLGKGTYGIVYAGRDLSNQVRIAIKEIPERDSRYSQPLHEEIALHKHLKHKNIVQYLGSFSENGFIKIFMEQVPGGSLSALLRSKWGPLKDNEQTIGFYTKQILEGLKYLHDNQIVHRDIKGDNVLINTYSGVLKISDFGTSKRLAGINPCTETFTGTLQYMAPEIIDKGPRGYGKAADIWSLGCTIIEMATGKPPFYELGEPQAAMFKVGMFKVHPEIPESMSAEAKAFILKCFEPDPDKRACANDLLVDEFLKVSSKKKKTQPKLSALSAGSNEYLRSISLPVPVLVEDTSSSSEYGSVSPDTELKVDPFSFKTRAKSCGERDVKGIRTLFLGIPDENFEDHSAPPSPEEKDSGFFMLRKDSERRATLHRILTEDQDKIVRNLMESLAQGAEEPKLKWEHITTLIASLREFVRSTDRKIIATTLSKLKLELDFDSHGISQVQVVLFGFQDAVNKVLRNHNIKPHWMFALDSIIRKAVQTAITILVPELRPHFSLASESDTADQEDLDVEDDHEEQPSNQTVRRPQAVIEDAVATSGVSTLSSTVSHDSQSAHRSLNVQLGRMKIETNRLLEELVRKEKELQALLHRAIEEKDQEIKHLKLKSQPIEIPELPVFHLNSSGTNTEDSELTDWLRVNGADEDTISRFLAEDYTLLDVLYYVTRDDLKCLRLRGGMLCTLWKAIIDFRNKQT

[4] = Antiproliferative against rat NRK-49F cells measured after 48 hrs by CCK8 assay; format: toxicity, cell-based
[5] = target: T1, Mitogen-activated protein kinase kinase kinase 5; assay: Inhibition of ASK1 (unknown origin)
[6] = Antiproliferative against human BEAS-2B cells measured after 48 hrs by CCK8 assay; format: toxicity, cell-based

Row | SMILES | IC50 [3] [µM] | IC50 [5] [µM] | IC50 at 48 h [1] [µM] | IC50 at 48 h [2] [µM] | IC50 at 48 h [4] [µM] | IC50 at 48 h [6] [µM]
1 | O=C(Nc1cccc(-c2nncn2C2CC2)n1)c1cc(-c2ccc3[nH]ccc3c2)cn(Cc2ccccc2F)c1=O | > 5 | – | > 80 | 18.7 | 5.75 | –
2 | O=C(Nc1cccc(-c2nncn2C2CC2)n1)c1cc(-c2cccnc2)cn(Cc2ccccc2F)c1=O | > 5 | – | > 80 | 64.2 | > 80 | –
3 | O=C(Nc1cccc(-c2nncn2C2CC2)n1)c1cc(-c2cccc3[nH]ccc23)cn(Cc2ccccc2F)c1=O | > 5 | – | > 80 | > 80 | 47 | –
4 | O=C(Nc1cccc(-c2nncn2C2CC2)n1)c1cc(-c2cnn(C(F)F)c2)cn(Cc2ccccc2F)c1=O | 0.291 | – | > 80 | > 80 | 58.5 | –
5 | O=C(Nc1cccc(-c2nncn2C2CC2)n1)c1cc(Br)cn(Cc2ccccc2F)c1=O | > 5 | – | > 80 | > 80 | > 80 | –
6 | O=C(Nc1cccc(-c2nncn2C2CC2)n1)c1cc(-c2ccc3scnc3c2)cn(Cc2ccccc2F)c1=O | > 5 | – | > 80 | 68.3 | 34.2 | –
7 | O=C(Nc1cccc(-c2nncn2C2CC2)c1)c1cc(-n2cnc(C3CC3)c2)ccn1 | – | – | 33.4 | 67.9 | 34.4 | 90.2
8 | O=C(N[C@@H](COc1ccc2[nH]c(=O)[nH]c2c1)c1ccccc1)c1cccn(Cc2ccc(F)c(F)c2)c1=O | > 5 | – | 36.2 | 64.8 | 40.4 | 96.4
9 | O=C(Nc1cccc(-c2nncn2C2CC2)n1)c1cc(-c2cnn(C3CCC3)c2)cn(Cc2ccccc2F)c1=O | 0.289 | – | > 80 | 10.7 | > 80 | –
10 | O=C(Nc1cccc(-c2nncn2C2CC2)n1)c1cc(-c2cnc(Cl)nc2)cn(Cc2ccccc2F)c1=O | 2.37 | – | > 80 | 29.2 | > 80 | –

Further lines, with some results ahead:

Row | IC50 [3] [µM] | IC50 [5] [µM] | SMILES | IC50 at 48 h [1] [µM] | IC50 at 48 h [2] [µM] | IC50 at 48 h [4] [µM] | IC50 at 48 h [6] [µM]
11 | 0.489 | – | Cn1nc(C(F)(F)F)c2cc(C(=O)Nc3cccc(-c4nncn4C4CC4)n3)c(=O)[nH]c21 | > 80 | > 80 | > 80 | –
12 | > 5 | – | Cn1nc(C(F)(F)F)c2cc(C(=O)Nc3cccc(-c4nncn4C4CCCC4)c3)c(=O)[nH]c21 | > 80 | > 80 | > 80 | –
13 | – | 0.0129 | Cc1cc(F)c(C(=O)Nc2cccc(-c3nncn3C(C)C)c2)cc1-n1cnc(C2CC2)c1 | – | – | – | –
14 | > 5 | – | CC(C)n1cnnc1-c1cccc(NC(=O)c2cc3c(C(F)(F)F)nn(C)c3n(C)c2=O)c1 | > 80 | > 80 | 56.1 | –
15 | > 5 | – | CC(C)n1cnnc1-c1cccc(NC(=O)c2cc3c(C(F)(F)F)nn(C)c3[nH]c2=O)c1 | > 80 | > 80 | > 80 | –
16 | 1.29 | – | Cn1nc(C(F)(F)F)c2cc(C(=O)Nc3cccc(-c4nncn4C4CC4)n3)c(OCc3ccccc3F)nc21 | > 80 | 62.5 | 55.2 | –
17 | > 5 | – | CC(C)n1cnnc1-c1cccc(NC(=O)c2cc3c(C(F)(F)F)nn(C)c3nc2OCc2ccccc2F)n1 | > 80 | 17.9 | > 80 | –
18 | 2.66 | – | CC(C)n1cnnc1-c1cccc(NC(=O)c2cc3c(C(F)(F)F)nn(C)c3[nH]c2=O)n1 | > 80 | > 80 | > 80 | –
19 | 0.978 | – | CCCCn1cnnc1-c1cccc(NC(=O)c2cc3c(C(F)(F)F)nn(C)c3[nH]c2=O)n1 | > 80 | > 80 | > 80 | –
20 | > 5 | – | Cn1nc(C(F)(F)F)c2cc(C(=O)Nc3cccc(-c4nncn4C4CCCCC4)n3)c(=O)[nH]c21 | > 80 | > 80 | > 80 | –
21 | > 5 | – | Cn1nc(C(F)(F)F)c2cc(C(=O)Nc3cccc(-c4nncn4C4CCCCC4)c3)c(=O)[nH]c21 | > 80 | > 80 | > 80 | –
22 | 1.57 | – | CCn1c(=O)c(C(=O)Nc2cccc(-c3nncn3C3CCCCC3)n2)cc2c(C(F)(F)F)nn(C)c21 | > 80 | > 80 | > 80 | –
23 | 2.18 | – | Cn1nc(C(F)(F)F)c2cc(C(=O)Nc3cccc(-c4nncn4C4CCCC4)n3)c(=O)[nH]c21 | > 80 | > 80 | > 80 | –
24 | 1.02 | – | Cn1nc(C(F)(F)F)c2cc(C(=O)Nc3cccc(-c4nncn4C4CCCC4)n3)c(OCc3ccccc3F)nc21 | 14.8 | 7.99 | 11.4 | –

From ChEMBL document CHEMBL5352493, “Dual inhibitors of ASK1 and PDK1 kinases: Design, synthesis, molecular docking and mechanism studies of N-benzyl pyridine-2-one containing derivatives as anti-fibrotic agents” (Eur J Med Chem, 2023)
